The results in this text go back to patent publication US20240350458A1, “14-3-3 PROTEIN MODULATORS AS ANTITUMOR AGENTS” (priority 2021, published 2024).

Entries after “also recorded” stand apart in the source; their conditions may differ.

By IC50 is commonly meant the concentration at which inhibition is half-maximal.

The test system of experiment [1] is ATC-derived cell lines (Sw, FRO, 8505c). The experiment is described as follows: MTT proliferation assay, three ATC-derived cell lines. The conditions noted are these: Homo sapiens; three ATC-derived cell lines (Sw, FRO, 8505c), 72 h; read-out: IC50 value after 72 h exposure. The experiment is classed as cell-based. The procedure:
(§1) The antiproliferative activity was assessed by MTT proliferation assay (Table III) The anticancer activity was also investigated in a rare and lethal cancer (i.e. anaplastic thyroid cancer) by the use of three ATC-derived cell lines (Sw, FRO, 8505c). Again, the IC50 value after 72 h exposure was in the range of 10 to 50 nM. The same trend was also observed in four melanoma cell lines A2058, M14 (genotype BRAFV600E), SKMEL 197 e MEWO (genotype BRAF wild-type).
(In general: Tetrazolium dyes change colour on reduction, which living cells bring about.)

For the next experiment, the system named is NCI-H69. The experiment is described as follows: MTT proliferation assay, SCLC. The conditions noted are these: Homo sapiens. In kind it is cell-based. The procedure: as §1
(§2) Table III IC50 expressed in μM and Emax (at 30 μM) for FC86 after 72 h exposure, were calculated by MTT assay

A further experiment deals with NCI-H82. Nature of the experiment: MTT proliferation assay, SCLC. In kind it is cell-based. The conditions noted are these: Homo sapiens. On the procedure: as §1, §2
For experiment [2], the system named is 14-3-3. The experiment is described as follows: DARTS in U87MG cells. In kind it is binding. The conditions noted are these: 5 μM, 2 h, MS and western blot. The procedure:
FIG. 5 represents DARTS experiments results as reported in example 6: Proteins obtained from U87MG cells incubated with 5 μM of FC86 or with the medium for 2 h underwent subtilisin-catalyzed digestion.
(§3) Current protocols in chemical biology 2011, 3:163-180]. […] The same DARTS experiments were also performed by incubating glioblastoma cell lines (U87MG) with subtoxic amounts of FC86 and data collected confirmed the 14-3-3 as target protein. (FIG. 5).
(§4) The identification of putative targets of FC86 was achieved by Drug Affinity Responsive Target Stability (DARTS) experiments. Cancer cells were incubated with a sub-toxic concentration (50 nM for U937 and 5 μM for U87MG) of FC86 for 2 h or with the medium (control cells). After the treatments, treated and control cells were collected and whole protein extracts were prepared by lysing cells in 20 mM Tris-HCl (pH 7.5), 150 mM NaCl, 1 mM EDTA, 1 mM EGTA, 1% NP-40, 1% sodium deoxycholate, 2.5 mM sodium pyrophosphate, 1 mM β-glycerophosphate, 1 mM Na3VO4, 1 μg/ml leupeptin. Protein concentration was determined by the Bradford protein assay using bovine serum albumin as standard. […] Parameters sets were: trypsin cleavage; carbamidomethylation of cysteine as a fixed modification and methionine oxidation as a variable modification; a maximum of two missed cleavages; false discovery rate (FDR), calculated by searching the decoy database, 0.05. […]
On the technique in general: In western blotting, separated proteins are transferred to a membrane and probed.

The test system of the next experiment is 410 human kinases. Nature of the experiment: ProQinase kinase profiling. To be noted: at 1 and 0.1 μM. The experiment is classed as biochemical.
In a further experiment the test system is REC1. Nature of the experiment: MTT proliferation assay, B-cell lymphoma cell line. In kind it is cell-based. To be noted: Homo sapiens; REC1, 72 h of drug incubation. The procedure: (§5) All the above compounds were tested in vitro for their anticancer activity against a panel of eight B-cell lymphoma cell lines by MTT proliferation assay. The tested cell lines belonging to mantle cell lymphoma (MCL: REC1, Z138), activated B-cell diffuse large B-cell lymphoma (ABC-DLBCL: R11, HBL1, U2932, TMD8), germinal center B-cell diffuse large B-cell lymphoma (GCB-DLBCL: SU-DHL-10, FARAGE) subtypes. In overall, MCL cell lines present Cyclin D1 overexpression, while ABC- and GCB-DLBCL's proliferation is BCR and BCL6/HDACs driven, respectively. At the RNA level, all tested lymphoma cell lines were characterized by an overexpression of 14-3-3 zeta as reported for B-cell lymphomas resistant to chemotherapeutic regimen.

The next experiment concerns HBL1. Nature of the experiment: MTT proliferation assay, B-cell lymphoma cell line. In kind it is cell-based. The conditions noted are these: HBL1, 72 h of drug incubation. On the procedure:
as §5

The test system of another experiment is RI1. The experiment is described as follows: MTT proliferation assay, B-cell lymphoma cell line. In kind it is cell-based. The conditions noted are these: Ri-1; RI1, 72 h of drug incubation. The procedure:
as §5

The subject of another experiment is TMD8. The experiment is described as follows: MTT proliferation assay, B-cell lymphoma cell line. In kind it is cell-based. To be noted: Homo sapiens; TMD8, 72 h of drug incubation. On the procedure:
as §5

Another experiment concerns FARAGE. Nature of the experiment: MTT proliferation assay, B-cell lymphoma cell line. The experiment is classed as cell-based. The conditions noted are these: 72 h of drug incubation. The procedure:
as §5

The next experiment relates to U2932. Nature of the experiment: MTT proliferation assay, B-cell lymphoma cell line. In kind it is cell-based. The conditions noted are these: Homo sapiens; U2932, 72 h of drug incubation. On the procedure:
as §5

In another experiment the test system is Z138. Nature of the experiment: MTT proliferation assay, B-cell lymphoma cell line. To be noted: Homo sapiens, Z-138; Z138, 72 h of drug incubation. The experiment is classed as cell-based. The procedure:
as §5

The subject of another experiment is SUDHL10. The experiment is described as follows: MTT proliferation assay, B-cell lymphoma cell line. The experiment is classed as cell-based. The conditions noted are these: Homo sapiens, SU-DHL10; SUDHL10, 72 h of drug incubation. On the procedure: as §5
Experiment [3] deals with 14-3-3. Nature of the experiment: DARTS in U937 cells. In kind it is binding. To be noted: 50 nM, 2 h, MS and western blot. On the procedure:
FIG. 4 represents DARTS experiments results as reported in example 6: Proteins obtained from U937 cells incubated with 50 nM FC86 or with the medium for 2 h underwent subtilisin-catalyzed digestion.
as §3, §4

For the next experiment, the system named is HCT-116. The experiment is described as follows: MTT proliferation assay, colon cancer. To be noted: Homo sapiens. The experiment is classed as cell-based. On the procedure: as §1, §2

For the molecule `Cc1ccc(S(=O)(=O)Nc2ccc3c(c2)/C(=C/c2cccs2)C(=O)N3)cc1` [FC86, N-[(3Z)-2-oxo-3-(thiophene-2-ylmethylidene)-2,3-dihydro-1H-indol-5-yl]-4-methylbenzenesulfonamide], the IC50 in experiment [1] is 10 to 50 nM; in the experiment on NCI-H69 (SCLC NCI-H69, 72 h exposure), 1400 nM; in the experiment with NCI-H82 (SCLC NCI-H82, 72 h exposure), 3000 nM; in the experiment with REC1, 10 nM; in the experiment with HBL1 it was 25 nM; in the experiment on RI1, 25 nM. Further, the IC50 was determined as 20 nM in the experiment with TMD8; 15 nM with FARAGE; 20 nM with U2932; 25 nM with Z138; 25 nM with SUDHL10; 1600 nM in the experiment on HCT-116 (Colon HCT-116, 72 h exposure). Moreover, the Emax at 30 µM in the experiment on NCI-H69 (SCLC NCI-H69, 30 μM, 72 h) amounted to 80%; with NCI-H82 (SCLC NCI-H82, 30 μM, 72 h) it was 55%; in the experiment on HCT-116 (Colon HCT-116, 30 μM, 72 h), 62%. The entries for the “resistance of 14-3-3 to subtilisin proteolysis (DARTS)” value in the experiment on 14-3-3 [2] and with 14-3-3 [3] were “significant increment of resistance to proteolysis” and “significant protection from proteolysis; also recorded: significant increment of resistance to proteolysis”, respectively. For the same molecule, the “activity against 410 human kinases” value with 410 human kinases is reported as “lack of activity against any of them”.
